These results are taken from patent US8273774B2, “Phenoxypyridinylamide compounds” (AstraZeneca AB, priority 2008, dated 2012).

Molecules are shown by their SMILES. Where a name gives a salt, the structure may show the parent alone.

The target of this experiment is recombinant Human Phosphodiesterase B2 (PDE4B2) (Homo sapiens, UniProt Q07343). Put plainly: Human Phosphodiesterase B2 Radiometric Assay. The class given is biochemical. The conditions noted are these: 0.1 μg/mL recombinant PDE4B2; preincubated at 30 C for 30 min; [3H]cyclic AMP 8 nM, stopped after 20 min; yttrium silicate SPA beads; read-out: PDE4B2 pIC50 (converted). The procedure, abridged: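 SPA read-out: product 5′AMP binds yttrium silicate beads (added with 18 mM ZnSO4 after 20 min) in preference to [3H]cAMP substrate, given at 8 nM final.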
recombinant Human Phosphodiesterase B2 (PDE4B2), sequence (Q07343 1-564 isoform Q07343-2): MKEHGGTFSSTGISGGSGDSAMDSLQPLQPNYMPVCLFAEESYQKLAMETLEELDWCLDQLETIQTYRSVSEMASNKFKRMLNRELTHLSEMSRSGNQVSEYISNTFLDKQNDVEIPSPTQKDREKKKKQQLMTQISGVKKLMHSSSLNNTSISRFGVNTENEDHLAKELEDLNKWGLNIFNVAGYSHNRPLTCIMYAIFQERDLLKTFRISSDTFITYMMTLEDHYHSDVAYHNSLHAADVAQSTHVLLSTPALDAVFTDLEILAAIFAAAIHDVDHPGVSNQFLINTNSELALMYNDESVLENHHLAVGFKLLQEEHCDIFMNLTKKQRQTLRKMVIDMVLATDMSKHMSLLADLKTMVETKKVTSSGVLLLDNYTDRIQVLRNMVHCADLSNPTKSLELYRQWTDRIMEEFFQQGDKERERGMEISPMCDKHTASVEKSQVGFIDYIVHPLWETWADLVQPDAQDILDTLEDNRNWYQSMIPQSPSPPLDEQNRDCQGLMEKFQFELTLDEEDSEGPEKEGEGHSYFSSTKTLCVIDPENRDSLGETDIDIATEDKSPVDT

Consider `Cc1cc(C(=O)N[C@H]2CC[C@@H](NC(=O)c3cc(F)cnc3Oc3cccc(-c4ccc(CN5CCSCC5)cc4CN4CCOCC4)c3)CC2)nn1C` [Example 138, N-((1s,4s)-4-(1,5-dimethyl-1H-pyrazole-3-carboxamido)cyclohexyl)-5-fluoro-2-(2′-(morpholinomethyl)-4′-(thiomorpholinomethyl)biphenyl-3-yloxy)nicotinamide], for which the IC50 was 0.0251 nM.

`Cc1cccc2nc(C(=O)N[C@H]3CC[C@@H](NC(=O)c4cc(F)cnc4Oc4cccc(-c5ccc(O)c(CN6C[C@@H](C)N[C@@H](C)C6)c5)c4)CC3)cn12` [Example 85, N-((1s,4s)-4-(2-(3′-(((3S,5R)-3,5-dimethylpiperazin-1-yl)methyl)-4′-hydroxybiphenyl-3-yloxy)-5-fluoronicotinamido)cyclohexyl)-5-methylimidazo[1,2-a]pyridine-2-carboxamide]: the IC50 is 0.0631 nM.

Take `Cc1cc(C(=O)N[C@H]2CC[C@@H](NC(=O)c3cc(F)cnc3Oc3cccc(-c4ccc(CN5C[C@@H](C)N[C@@H](C)C5)cc4)c3)CC2)nn1C` [Example 62, N-((1s,4s)-4-(1,5-dimethyl-1H-pyrazole-3-carboxamido)cyclohexyl)-2-(4′-(((3S,5R)-3,5-dimethylpiperazin-1-yl)methyl)biphenyl-3-yloxy)-5-fluoronicotinamide]: the IC50 is 0.0251 nM.

On to `Cc1cc(C(=O)N[C@H]2CC[C@@H](NC(=O)c3cc(F)cnc3Oc3cccc(-c4ccc(CCCN5CCNCC5)cc4)c3)CC2)n[nH]1` [Example 157, 5-Fluoro-N-((1s,4s)-4-(5-methyl-1H-pyrazole-3-carboxamido)cyclohexyl)-2-(4′-(3-(piperazin-1-yl)propyl)biphenyl-3-yloxy)nicotinamide], for which the IC50 was 0.0794 nM.

For `Cc1cccc(C(=O)N[C@H]2CC[C@@H](NC(=O)c3cc(F)cnc3Oc3cccc(-c4ccc(CCCNCCCO)cc4)c3)CC2)n1` [Example 158, N-((1s,4s)-4-(5-Fluoro-2-(4′-(3-(3-hydroxypropylamino)propyl)biphenyl-3-yloxy)nicotinamido)cyclohexyl)-6-methylpicolinamide], the IC50 was 0.0316 nM.

On to `O=C(N[C@H]1CC[C@@H](NC(=O)c2cc(F)cnc2Oc2cccc(-c3ccc(O)cc3CN3CCOCC3)c2)CC1)c1cccc(O)c1` [Example 32, 5-fluoro-2-(4′-hydroxy-2′-(morpholinomethyl)biphenyl-3-yloxy)-N-((1s,4s)-4-(3-hydroxybenzamido)cyclohexyl)nicotinamide], for which the IC50 is 0.316 nM.

With `C[C@@H]1CN(Cc2ccc(-c3cccc(Oc4ncc(F)cc4C(=O)N[C@H]4CC[C@@H](NC(=O)c5cn6cc(F)ccc6n5)CC4)c3)c(CN3CCSCC3)c2)C[C@H](C)N1` [Example 169, N-((1s,4s)-4-(2-(4′-(((3S,5R)-3,5-Dimethylpiperazin-1-yl)methyl)-2′-(thiomorpholinomethyl)biphenyl-3-yloxy)-5-fluoronicotinamido)cyclohexyl)-6-fluoroimidazo[1,2-a]pyridine-2-carboxamide], the IC50 is 0.02 nM.

Regarding `Cc1cccc2nc(C(=O)N[C@H]3CC[C@@H](NC(=O)c4cc(F)cnc4Oc4cccc(-c5ccc(O)cc5CN(C)C)c4)CC3)cn12` [Example 11, N-((1s,4s)-4-(2-(2′-((dimethylamino)methyl)-4′-hydroxybiphenyl-3-yloxy)-5-fluoronicotinamido)cyclohexyl)-5-methylimidazo[1,2-a]pyridine-2-carboxamide], the IC50 was 0.0501 nM.

Turning to `Cc1cc(C(=O)N[C@H]2CC[C@@H](NC(=O)c3cc(F)cnc3Oc3cccc(-c4ccc(CCN5C[C@@H](C)N[C@@H](C)C5)cc4)c3)CC2)nn1C` [Example 82, N-((1s,4s)-4-(1,5-dimethyl-1H-pyrazole-3-carboxamido)cyclohexyl)-2-(4′-(2-((3S,5R)-3,5-dimethylpiperazin-1-yl)ethyl)biphenyl-3-yloxy)-5-fluoronicotinamide], the IC50 was 0.02 nM.

Consider `Cc1nc(C(=O)N[C@H]2CC[C@@H](NC(=O)c3cc(F)cnc3Oc3cccc(-c4ccc(CN(C)C)cc4CN4CCOCC4)c3)CC2)cs1` [Example 119, N-((1s,4s)-4-(2-(4′-((dimethylamino)methyl)-2′-(morpholinomethyl)biphenyl-3-yloxy)-5-fluoronicotinamido)cyclohexyl)-2-methylthiazole-4-carboxamide], for which the IC50 was 0.0794 nM.

On to `Cc1cc(C(=O)N[C@H]2CC[C@@H](NC(=O)c3cc(F)cnc3Oc3cccc(-c4ccc(CCN5CCC(N6CCCC6)CC5)cc4)c3)CC2)nn1C` [Example 154, N-((1s,4s)-4-(1,5-dimethyl-1H-pyrazole-3-carboxamido)cyclohexyl)-5-fluoro-2-(4′-(2-(4-(pyrrolidin-1-yl)piperidin-1-yl)ethyl)biphenyl-3-yloxy)nicotinamide], for which the IC50 was 0.0316 nM.

As for `Cc1cccc(C(=O)N[C@H]2CC[C@@H](NC(=O)c3cc(F)cnc3Oc3cccc(-c4ccc(CCCN5CCNCC5)cc4)c3)CC2)n1` [Example 153, N-((1s,4s)-4-(5-fluoro-2-(4′-(3-(piperazin-1-yl)propyl)biphenyl-3-yloxy)nicotinamido)cyclohexyl)-6-methylpicolinamide], the IC50 was 0.0316 nM.

Take `C[C@@H]1CN(Cc2ccc(-c3cccc(Oc4ncc(F)cc4C(=O)N[C@H]4CC[C@@H](NC(=O)c5cccc6[nH]cnc56)CC4)c3)c(CN3CCOC[C@@H]3C)c2)C[C@H](C)N1` [Example 195, N-((1s,4s)-4-(2-(4′-(((3S,5R)-3,5-dimethylpiperazin-1-yl)methyl)-2′-(((S)-3-methylmorpholino)methyl)biphenyl-3-yloxy)-5-fluoronicotmamido)cyclohexyl)-1H-benzo[d]imidazole-4-carboxamide]: the IC50 is 0.02 nM.

On to `Cc1nc(C(=O)N[C@H]2CC[C@@H](NC(=O)c3cc(F)cnc3Oc3cccc(-c4ccc(CCCN5CCCN(C)CC5)cc4)c3)CC2)cs1` [Example 134, N-((1s,4s)-4-(5-fluoro-2-(4′-(3-(4-methyl-1,4-diazepan-1-yl)propyl)biphenyl-3-yloxy)nicotinamido)cyclohexyl)-2-methylthiazole-4-carboxamide], for which the IC50 is 0.0631 nM.

Consider `O=C(N[C@H]1CC[C@@H](NC(=O)c2cc(F)cnc2Oc2cccc(-c3ccc(CCCN4CCNCC4)cc3)c2)CC1)c1cn2cc(F)ccc2n1` [Example 121, 6-fluoro-N-((1s,4s)-4-(5-fluoro-2-(4′-(3-(piperazin-1-yl)propyl)biphenyl-3-yloxy)nicotinamido)cyclohexyl)imidazo[1,2-a]pyridine-2-carboxamide], for which the IC50 is 0.0631 nM.

For `CN(C)CCN(C)Cc1ccc(-c2cccc(Oc3ncc(F)cc3C(=O)N[C@H]3CC[C@@H](NC(=O)c4cc5n(n4)CCCC5)CC3)c2)cc1` [Example 110, N-((1s,4s)-4-(2-(4′-(((2-(dimethylamino)ethyl)(methyl)amino)methyl)biphenyl-3-yloxy)-5-fluoronicotinamido)cyclohexyl)-4,5,6,7-tetrahydropyrazolo[1,5-a]pyridine-2-carboxamide hydrochloride], the IC50 was 0.2 nM.

`Cc1cc(C(=O)N[C@H]2CC[C@@H](NC(=O)c3cc(F)cnc3Oc3cccc(-c4ccc(CCCN5CCN(C)CC5)cc4)c3)CC2)nn1C` [Example 80, N-((1s,4s)-4-(1,5-dimethyl-1H-pyrazole-3-carboxamido)cyclohexyl)-5-fluoro-2-(4′-(3-(4-methylpiperazin-1-yl)propyl)biphenyl-3-yloxy)nicotinamide]: the IC50 was 0.0398 nM.

Take `Cc1cc(C)n2nc(C(=O)N[C@H]3CC[C@@H](NC(=O)c4cc(F)cnc4Oc4cccc(-c5ccc(CN6CCCN(CCO)CC6)cc5CN5CCOC[C@@H]5C)c4)CC3)cc2n1` [Example 179, N-((1s,4s)-4-(5-Fluoro-2-(4′-((4-(2-hydroxyethyl)-1,4-diazepan-1-yl)methyl)-2′-(((S)-3-methylmorpholino)methyl)biphenyl-3-yloxy)nicotinamido)cyclohexyl)-5,7-dimethylpyrazolo[1,5-a]pyrimidine-2-carboxamide]: the IC50 was 0.0501 nM.

Consider `Cc1cc(C(=O)N[C@H]2CC[C@@H](NC(=O)c3cc(F)cnc3Oc3cccc(-c4ccc(CN5CCN(C(C)C)CC5)cc4CN4CCOCC4)c3)CC2)nn1C` [Example 183, N-((1s,4s)-4-(1,5-Dimethyl-1H-pyrazole-3-carboxamido)cyclohexyl)-5-fluoro-2-(4′-((4-isopropylpiperazin-1-yl)methyl)-2′-(morpholinomethyl)biphenyl-3-yloxy)nicotinamide], for which the IC50 was 0.2 nM.

In the case of `O=C(N[C@H]1CC[C@@H](NC(=O)c2cc(F)cnc2Oc2cccc(-c3ccc(O)cc3CN3CCCOCC3)c2)CC1)c1cn2cc(F)ccc2n1` [Example 13, N-((1s,4s)-4-(2-(2′-((1,4-oxazepan-4-yl)methyl)-4′-hydroxybiphenyl-3-yloxy)-5-fluoronicotinamido)cyclohexyl)-6-fluoroimidazo[1,2-a]pyridine-2-carboxamide], the IC50 was 0.02 nM.

For `Cc1cccc(CN[C@H]2CC[C@@H](NC(=O)c3cc(F)cnc3Oc3cccc(-c4ccc(O)cc4CN4CCOCC4)c3)CC2)n1` [Example 6, 5-fluoro-2-(4′-hydroxy-2′-(morpholinomethyl)biphenyl-3-yloxy)-N-((1s,4s)-4-((6-methylpyridin-2-yl)methylamino)cyclohexyl)nicotinamide], the IC50 is 3.16 nM.

For `Cc1csc(C(=O)N[C@H]2CC[C@@H](NC(=O)c3cc(F)cnc3Oc3cccc(-c4ccc(CCCN5CCNCC5)cc4)c3)CC2)n1` [Example 148, N-((1s,4s)-4-(5-fluoro-2-(4′-(3-(piperazin-1-yl)propyl)biphenyl-3-yloxy)nicotinamido)cyclohexyl)-4-methylthiazole-2-carboxamide], the IC50 was 0.0398 nM.

As for `Cc1nc(C(=O)N[C@H]2CC[C@@H](NC(=O)c3cc(F)cnc3Oc3cccc(-c4ccc(CN5CCNCC5)cc4O)c3)CC2)cs1` [Example 57, N-((1s,4s)-4-(5-fluoro-2-(2′-hydroxy-4′-(piperazin-1-ylmethyl)biphenyl-3-yloxy)nicotinamido)cyclohexyl)-2-methylthiazole-4-carboxamide], the IC50 was 0.0631 nM.
